The subject of series [1] is New Zealand White rabbits. Briefly: Portal vein embolization (PVE) in rabbits, 6-ECDCA vs vehicle (Example 4). It is filed as in vivo, rabbit. The text has this: Female New Zealand White rabbits with a mean weight of 3.0±0.5 kg were acclimatized for 1 week under standardized laboratory conditions in a temperature-controlled room. The animals were individually housed, had free access to standard laboratory food and water, and were subjected to a 12-h light/dark cycle per day. The rabbits were divided into two groups receiving 6-ECDCA and two control groups receiving vehicle. Specifically, the PVE study rabbits were divided into following groups: • Group 1: Normal diet (6-ECDCA 10 mg/kg/day, oral gavage) (N=6), animals sacrificed at day 7, post PVE. • Group 2: Normal diet (Vehicle) (N=6), animals sacrificed at day 7 post PVE. • Group 3: Normal diet (6-ECDCA 10 mg/kg/day, oral gavage) (N=6), animals sacrificed at day 3, post PVE. • Group 4: Normal diet (Vehicle) (N=6), animals sacrificed at day 3, post PVE.
The rabbit liver consists of four liver lobes, three of which are positioned cranially, with the fourth located caudally. In the rabbit PVE model the cranial liver lobes, which account for approximately 80% of the total liver volume, were embolized. The rabbit was placed in a supine position after subcutaneous injection of 0.03 mg/kg buprenorphine and 0.02 mg/kg enrofloxacin. Rabbits were given enrofloxacin 0.02 mg/kg subcutaneously once a day for 3d postoperatively. Animals were anesthetized by intramuscular injection of 25.0 mg/kg ketamine and 0.2 mg/kg dexmedetomidine. Isoflurane 1%-2% with O2/air (1:0.7 L/min) was used to maintain anesthesia. Heart rate and arterial oxygen saturation were measured by pulse oximetry continuously throughout the procedure.
To identify the individual portal branches, portography was performed. After passing the portal branch to the caudal liver lobe, a microcatheter was positioned into the main portal branch supplying the cranial liver lobes. Animals received an initial mixture of contrast (Visipaque) and 90-180 μm polyvinyl alcohol (PVA) particles, followed by injection of 300-500 μm PVA particles until cessation of flow and placement of three platinum coils (6 mm). Portography directly after PVE confirmed total occlusion of the cranial portal blood flow in the embolization groups. The hypertrophy and atrophy responses of the caudal and cranial lobes were measured using CT volumetry before embolization and on day 3 and 7 post-embolization.
Multiphasic CT scans were performed using a 64-slice CT scan (Brilliance 64-channel; Philips, Eindhoven, The Netherlands). Rabbits were placed in supine position. After a blank series, a contrast enhanced scan was performed 15 s (arterial phase), 30 s (portal phase), and 45 s (venous phase) after contrast injection (4 mL Visipaque), followed by 3 mL NaCl. 3D-reconstructions of the liver were made using reconstructed 2 mm axial slices. The total liver and the cranial and caudal liver lobes were manually delineated and total liver volume (TLV) and the caudal liver volume (CLV) and cranial liver volume (CrLV) were calculated.
The following measurements were carried out: (1) body weight, (2) computed tomography of the embolized and non-embolized lobes, (3) expression of cell cycle-related and bile salt homeostasis-related transcripts in the liver, (4) expression of ileal transcripts, and (5) serum total bile salt concentration.
Serum bile salt concentration was determined at baseline, at 3 h, and at days 1, 3, and 7 post PVE. […]

Series [2] deals with New Zealand White rabbits. The series is described as follows: Liver injury after PVE: clinical chemistry and H&E histology (Example 5). It is filed as in vivo, rabbit. As for the experimental part:
Liver tissue (left lateral and caudal lobes) was fixed in buffered formalin for 48 h, and subsequently dehydrated and embedded in paraffin. Four-micron sections of liver tissue were cut and stained with standard hematoxylin and eosin stain. Sections were scored for lobular and portal inflammation according to Table 1. Additionally, liver sections were stained with Ki67 antibodies to quantify hepatocyte proliferation, and hematoxylin counterstain as described in detail previously (van der Loos C M, et al. J Histochern Cytochern 2013; 61(1):11-8; Marsman H A, et al. Br J Surg 2013; 100(5):674-83). Ki67-positive hepatocytes were counted in a total of five high power fields per animal, by a hepatopathologist (JV) blinded to the group allocation. Liver histology was assessed at day 3 and 7 for n=6 per treatment group.
Serum alanine transaminase (ALT), amino aspartate aminotransferase (AST), gamma-glutamyl transferase (γGT), and alkaline phosphatase (ALP) were determined by the Department of Clinical Chemistry (Academic Medical Center, Amsterdam, The Netherlands) using a Cobas 8000 modular analyzer (Roche, Basel, Switzerland) on samples obtained from 12 animals per treatment group.

As for `CC[C@H]1[C@@H](O)[C@@H]2[C@H](CC[C@]3(C)[C@@H]([C@H](C)CCC(=O)O)CC[C@@H]23)[C@@]2(C)CC[C@@H](O)C[C@@H]12` [Compound 1, 3α,7α-dihydroxy-6α-ethyl-5β-cholanic acid], in series [1] (CT, days 3 and 7 post embolization, FIG. 3), the “increase in caudal liver volume (CLV)” value was “accelerates hypertrophy of the non-embolized lobe”. The “concentration of serum bile salts vs control” value in series [1] (day 1 post PVE, FIG. 8) was “relatively lower”. For the same molecule, the “body weight, difference vs vehicle” value in series [1] (each day of the study, FIG. 2) is “not statistically significant”. Also, the “decrease in cranial liver lobe volume (CrLV)” value in series [1] (embolized lobe, FIG. 5) is listed as “does not affect atrophy of the embolized lobe”. In addition, the “liver regeneration and liver mass” value in series [1] (rabbit PVE model, 10 mg/kg/day oral gavage) is “accelerates liver regeneration and increases liver mass”. Moreover, in series [2] (after PVE), the “plasma ALP vs vehicle” value is listed as “slightly higher” and the “plasma γGT vs vehicle” value is recorded as “slightly higher”. Besides, the “hepatocellular injury or cholestasis” value in series [2] (conclusion from ALT, AST, γGT, ALP) is “did not cause hepatocellular injury or cholestasis”. Moreover, the “histological scoring of H&E sections of the caudal lobe” value in series [2] (day 3 and 7, vs vehicle, listed as OCA) is on record as “no differences between groups”. Moreover, the “plasma transaminase levels vs vehicle” value in series [2] (summary) is listed as “similar”.

(Values after patent US10548906B2, “Methods of promoting hepatic regeneration” (Intercept Pharmaceuticals, Inc., priority 2015, dated 2020).)
